Assay results from publication PMC10517971, “An inverse agonist of orphan receptor GPR61 acts by a G protein-competitive allosteric mechanism” (Nature Communications, 2023).
Where two headings read alike, the source gives them in different places.

Tests used:
[1] = target: T1, human GPR61 (Homo sapiens, UniProt Q9BZJ8); assay: Functional cAMP assay (HTRF), stable CHO TREx human GPR61 cells; format: cell-based
T1 construct: expressed in transfected cells; host or cells: CHO-K1, transient (Fugene6)
Excerpt: The human GPR61 (reference sequence NM_031936.4) cDNA was synthesized and subcloned into pcDNA5/FRT/TO (Thermo Fisher, Pittsburgh, PA). The pcDNA5/FRT/TO/ human GPR61 plasmid was then transfected into the Flp-In™-CHO Cell Line (Thermo Fisher, Pittsburgh, PA) and a doxycycline-inducible clonal cell line was selected (CHO TREx hGPR61 WT). Sequences encoding untagged and HiBit/hemagglutinin (HA)-tagged versions of the wild-type human GPR61 were synthesized and cloned into pcDNA3.1. The HiBit ([…]) and HA ([…]) tags were sequentially included after the N-terminal initiator methionine. Four single amino acid substitutions (N137A, R140A, V288A, N345A) were then introduced in the untagged and tagged human GPR61 constructs using site-specific mutagenesis. The nucleotide sequences of all receptor constructs were confirmed by automated DNA sequencing.
A homogeneous Time-Resolved Fluorescence (HTRF) assay (Perkin Elmer, Dynamic2 kit #) was used to assess receptor basal and inverse agonist activity at human GPR61, GPR62, and GPR101. For routine inverse agonist screening frozen CHO TREx human GPR61, GPR62 and GPR101 cells were used. […] Data were analyzed using the ratio of fluorescence intensity at 620 and 665 nm for each well, extrapolated from the cAMP standard curve to express data as nM cAMP for each well. […]

[2] = target: hERG (Homo sapiens, UniProt Q12809); assay: hERG ion channel profiling, Qube384 automated patch clamp (standard and extended protocol); format: cell-based
Excerpt: 105 hERG, Nav1.5 and Cav1.2 Ion Channel Profiling
106 Ionic curr ents wer e evalu ated in the whole-cell con figuration using the Qube384 automated planar
107 patch clamp platform (Sophion Bioscience A/S, Ballerup, Denmark). QChip 384X plates,
108 containing 10 patch clamp holes per well, were used to maximize success rate, which was routinely
110 For hERG experiments, the external solution was composed of (in mM): 132 NaCl, 4 KCl, 1.8
111 CaCl2, 1.2 MgCl2, 10 HEPES, 11 Glucose, pH 7.4, 305 mOsM. […]
121 The hERG current was elicited from a holding potential of - 80 mV by a voltage step to +40 mV
122 for 500 ms, followed by a repolarizing ramp to - 80 mV at - 0.6 mV/ms. This pattern was repeated
123 at a rate of 0.05 Hz. Peak hERG current was measured during the ramp. […]
126 Nav1.5 current, from a holding potential of - 80 mV, a 200 ms prepulse to - 120 mV was used to
127 homogenize channel inactivation, followed by a 40 ms step to a test potential of - 15 mV.
128 Membrane potential was further depolarized to +40 mV for 200 ms to completely inactivate the
129 peak Nav1.5 current, followed by a ramp from +40 mV to - 80 mV (-1.2 mV/ms). This voltage
130 pattern was repeated at 0.1 Hz, with peak Nav1.5 defined as the maximum current during the step
131 to - 15 mV. All studies were conducted at 23° C.
132 Compounds were dissol ved and initially diluted in dimethyl sulfoxide (DMSO), with a final
133 dilution in external solution to generate final working concent rations. The final DMSO
134 concentration in all experiments was 0.33% (v/v).
135 For all protocols three vehicle periods each lasting 5 minutes were applied to establish a stable
136 baseline. For the standard protocol this was followed by the addition of increasing concentrations
137 of test compound, with each exposure lasting 5 minutes. For the “extended” protocol following
138 the three- vehi cle additional each well subsequentl y received a single concentration of compound.
139 This application was repeated three times for each well, via a flowthrough addition where the
140 solution was replaced wi th the same compound concentration with each addition. Each exposure
142 Patch clamp data were analyzed using Assay Software 6.4.72 (Sophion Bioscience A/S, Ballerup,
143 Denmark). Current amplitudes were determined by averaging the last 4 currents under each test
144 condition. The percentage inhibition of each compound was determined by taking the ratio of
145 current amplitude measured in the presence of various concentrations of the test compound
146 (ICompound) versus the vehicle control current (IVehicle):
148 A dose-response curve was generat ed and fit to the Hill equation by the Sophion Analyzer software
149 to determine an IC50 value for each compound. The minimum and the slope of the fit were free […]

Sequence of hERG (Q12809 whole entry): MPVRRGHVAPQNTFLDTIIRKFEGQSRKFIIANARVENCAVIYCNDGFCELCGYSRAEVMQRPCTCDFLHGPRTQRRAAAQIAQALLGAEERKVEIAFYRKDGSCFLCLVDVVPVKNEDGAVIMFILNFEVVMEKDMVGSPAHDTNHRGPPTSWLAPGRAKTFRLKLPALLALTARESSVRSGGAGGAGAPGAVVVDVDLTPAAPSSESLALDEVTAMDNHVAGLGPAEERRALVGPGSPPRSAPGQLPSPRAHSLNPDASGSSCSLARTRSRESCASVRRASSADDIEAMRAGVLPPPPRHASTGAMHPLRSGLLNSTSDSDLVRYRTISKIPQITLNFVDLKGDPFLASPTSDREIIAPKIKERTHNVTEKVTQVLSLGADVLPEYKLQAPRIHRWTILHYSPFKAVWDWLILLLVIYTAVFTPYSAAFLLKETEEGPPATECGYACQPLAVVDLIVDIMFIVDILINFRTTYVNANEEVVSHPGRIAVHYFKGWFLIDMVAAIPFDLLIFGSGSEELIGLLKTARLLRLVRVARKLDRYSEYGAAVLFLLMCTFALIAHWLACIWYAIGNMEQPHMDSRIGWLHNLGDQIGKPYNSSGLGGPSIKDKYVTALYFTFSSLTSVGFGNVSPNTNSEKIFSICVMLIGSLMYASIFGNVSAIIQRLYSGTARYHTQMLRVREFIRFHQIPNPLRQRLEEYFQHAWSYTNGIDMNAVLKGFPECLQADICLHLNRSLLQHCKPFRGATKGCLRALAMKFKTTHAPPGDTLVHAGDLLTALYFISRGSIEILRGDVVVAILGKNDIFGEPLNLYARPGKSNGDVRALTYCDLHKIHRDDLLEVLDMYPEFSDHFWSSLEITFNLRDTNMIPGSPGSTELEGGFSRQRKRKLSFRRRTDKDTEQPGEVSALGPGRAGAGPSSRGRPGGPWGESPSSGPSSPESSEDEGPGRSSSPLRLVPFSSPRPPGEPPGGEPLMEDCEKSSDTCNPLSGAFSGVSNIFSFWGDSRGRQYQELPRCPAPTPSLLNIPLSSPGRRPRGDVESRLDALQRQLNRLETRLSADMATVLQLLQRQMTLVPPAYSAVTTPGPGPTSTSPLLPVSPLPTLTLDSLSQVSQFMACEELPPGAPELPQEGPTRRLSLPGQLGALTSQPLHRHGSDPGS
T1 sequence (Q9BZJ8 whole entry): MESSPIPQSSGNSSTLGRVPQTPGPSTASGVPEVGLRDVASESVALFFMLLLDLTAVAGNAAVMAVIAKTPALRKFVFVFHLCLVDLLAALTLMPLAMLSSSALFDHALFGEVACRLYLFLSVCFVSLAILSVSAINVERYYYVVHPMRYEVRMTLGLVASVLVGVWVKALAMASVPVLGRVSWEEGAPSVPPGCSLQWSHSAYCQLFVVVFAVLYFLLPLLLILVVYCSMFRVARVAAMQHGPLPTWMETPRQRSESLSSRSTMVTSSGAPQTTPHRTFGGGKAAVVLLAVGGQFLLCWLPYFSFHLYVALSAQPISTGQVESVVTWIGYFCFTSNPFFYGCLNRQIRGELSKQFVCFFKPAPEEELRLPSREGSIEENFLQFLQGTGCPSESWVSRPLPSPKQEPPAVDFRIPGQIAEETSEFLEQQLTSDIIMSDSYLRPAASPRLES

In the case of CCOc1cc(C)nc(N(CCOC)S(=O)(=O)c2ccc(NCc3c(F)cncc3F)nc2OC)n1 [Compound 1], the “potency against GPR61 relative to GPR62 and GPR101” value ([1]; GPR61 vs GPR62 and GPR101, peer review reply) is reported as “roughly 1000 fold”, the IC50 ([1]; stable CHO TREx cells, Supplementary Table 2) is reported as 0.021 µM and the IC50 ([2]; extended protocol, 1st period, read-out: Ion Channel Extended Protocol IC50 (nM), Period 1st) is reported as 36500 nM. For the same compound, the IC50 ([2]; extended protocol, 2nd period, read-out: Ion Channel Extended Protocol IC50 (nM), Period 2nd) was 28000 nM, the IC50 ([2]; extended protocol, 3rd period, read-out: Ion Channel Extended Protocol IC50 (nM), Period 3rd) was 18700 nM and the IC50 ([2]; standard protocol, read-out: Patch IC50) was 52900 nM.
